In US20130191098A1, “METHODS AND SYSTEMS FOR SIMULATIONS OF COMPLEX BIOLOGICAL NETWORKS USING GENE EXPRESSION INDEXING IN COMPUTATIONAL MODELS” (BOARD OF REGENTS OF THE UNIVERSITY OF TEXAS SYSTEM, priority 2010, published 2013):
Where two headings read alike, the source gives them in different places.

Legend:
[1] = tested on: liver cell; design: unit not given here; settings: cited from earlier work
[2] = tested on: skeletal muscle; test: Human clinical trial with statins: skeletal muscle cholesterol and ubiquinone (Paiva et al.); assay type: in vivo

SMILES	Cholesterol ([1]; DOSE 0.01)	Cholesterol ([1]; DOSE 3)	Cholesterol ([1]; DOSE 10)	Cholesterol ([1]; DOSE 20)	Ubiquinone, Percent from placebo ([2]; drop) [% drop]	Cholesterol, Percent from placebo ([2]; rise) [% rise]
CC(C)c1c(C(=O)Nc2ccccc2)c(-c2ccccc2)c(-c2ccc(F)cc2)n1CC[C@@H](O)C[C@@H](O)CC(=O)O [atorvastatin]	15.52	14.27	13.71	13.66		
CCC(C)(C)C(=O)O[C@H]1C[C@@H](C)C=C2C=C[C@H](C)[C@H](CC[C@@H]3C[C@@H](O)CC(=O)O3)[C@H]21 [simvastatin]					134	139
